From ChEMBL document CHEMBL3228010, “Potential antitumor agents. 29. Quantitative structure-activity relationships for the antileukemic bisquaternary ammonium heterocycles” (J Med Chem, 1979)

How the values were obtained:
[1] = Lipophilic-hydrophilic balance, Rm of the compound by partition chromatography; type: physicochemical
L1210 [2] = experiment: Antitumor activity against mouse L1210 cells […] in ip dosed C3H X DBA2 F1 hybrid mouse on day 0 and dosed once daily on days 1 to 5 assessed as increase in life span relative to control; type: functional
Mus musculus = experiment: Toxicity in ip dosed C3H X DBA2 F1 hybrid mouse […] with mouse L1210 cells on day 0 and dosed once daily on days 1 to 5 measured after 50 days; type: organism-based; details: in vivo, 1200 h
L1210 [3] = experiment: Antitumor activity against mouse L1210 cells […] in ip dosed C3H X DBA2 F1 hybrid mouse on day 0 and dosed at LD10 level once daily on days 1 to 5 assessed as increase in life span relative to control; type: functional

SMILES	Rm [1]	D40 (L1210 [2]) [mg/kg]	LD10 (Mus musculus) [mg/kg]	log(ILSmax) (L1210 [3])
CCCCC[n+]1cccc2cc(NC(=O)c3ccc(C(=O)Nc4ccc5c(ccc[n+]5CCCCC)c4)c(N)c3)ccc21.Cc1ccc(S(=O)(=O)[O-])cc1.Cc1ccc(S(=O)(=O)[O-])cc1	0.85	15	16	1.51
CCCC[n+]1cccc2cc(NC(=O)c3ccc(C(=O)Nc4ccc5c(ccc[n+]5CCCC)c4)cc3)ccc21.Cc1ccc(S(=O)(=O)[O-])cc1.Cc1ccc(S(=O)(=O)[O-])cc1	0.67	25	59	2.04
CCCC[n+]1cccc2cc(NC(=O)/C=C/c3ccc(C(=O)Nc4ccc5c(ccc[n+]5CCCC)c4)cc3)ccc21.Cc1ccc(S(=O)(=O)[O-])cc1.Cc1ccc(S(=O)(=O)[O-])cc1	0.9	25	25	1.4
CCC[n+]1cccc(NC(=O)c2ccc(NC(=O)c3ccc(C(=O)Nc4ccc(C(=O)Nc5ccc[n+](CCC)c5)c(OC)c4)cc3)cc2OC)c1.Cc1ccc(S(=O)(=O)[O-])cc1.Cc1ccc(S(=O)(=O)[O-])cc1	0.7	22	37	1.79
CCC[n+]1cccc(NC(=O)c2ccc(NC(=O)c3ccc(C(=O)Nc4ccc(C(=O)Nc5ccc[n+](CCC)c5)c(N)c4)cc3)cc2N)c1.Cc1ccc(S(=O)(=O)[O-])cc1.Cc1ccc(S(=O)(=O)[O-])cc1	-0.38	5	30	2.02
CC[n+]1cc(-c2ccc(NC(=O)c3ccc(Nc4cc[n+](CC)c5ccc(N)cc45)cc3N)cc2)c(N)nc1N.Cc1ccc(S(=O)(=O)[O-])cc1.Cc1ccc(S(=O)(=O)[O-])cc1	0.33	8.6	100	2.28
CC[n+]1ccc(Nc2ccc(NC(=O)/C=C/c3ccc(/C=C/C(=O)Nc4ccc(Nc5cc[n+](CC)cc5)cc4)cc3)cc2)cc1.Cc1ccc(S(=O)(=O)[O-])cc1.Cc1ccc(S(=O)(=O)[O-])cc1	-0.05	9	32	1.88
CC[n+]1cccc(C(=O)Nc2ccc(NC(=O)c3ccc(C(=O)Nc4ccc5c(ccc[n+]5CC)c4)cc3)cc2)c1.Cc1ccc(S(=O)(=O)[O-])cc1.Cc1ccc(S(=O)(=O)[O-])cc1	-0.12	3.1	6	1.89
CCCC[n+]1cccc2cc(NC(=O)c3ccc(C(=O)Nc4ccc5c(ccc[n+]5CCCC)c4)c(N)c3)ccc21.Cc1ccc(S(=O)(=O)[O-])cc1.Cc1ccc(S(=O)(=O)[O-])cc1	0.6	9	18	1.72
CC[n+]1cccc(NC(=O)c2ccc(NC(=O)c3ccc(C(=O)Nc4ccc(C(=O)Nc5ccc[n+](CC)c5)c(OC)c4)cc3)cc2OC)c1.Cc1ccc(S(=O)(=O)[O-])cc1.Cc1ccc(S(=O)(=O)[O-])cc1	0.45	24	40	1.76
CC[n+]1cccc(-c2ccc(NC(=O)/C=C/c3ccc(C(=O)Nc4ccc(-c5ccc(-c6ccc(-c7ccc[n+](CC)c7)cc6)cc5)cc4)cc3)cc2)c1.Cc1ccc(S(=O)(=O)[O-])cc1.Cc1ccc(S(=O)(=O)[O-])cc1	-0.3	5.2	60	2.25
CC[n+]1cccc(NC(=O)c2ccc(NC(=O)c3ccc(C(=O)Nc4ccc(C(=O)Nc5ccc[n+](CC)c5)cc4)c(N)c3)cc2)c1.Cc1ccc(S(=O)(=O)[O-])cc1.Cc1ccc(S(=O)(=O)[O-])cc1	-0.15	2.4	14	2.13
CC[n+]1cccc(NC(=O)c2ccc(NC(=O)c3ccc(C(=O)Nc4ccc(C(=O)Nc5ccc[n+](CC)c5)c(N)c4)c(N)c3)cc2N)c1.Cc1ccc(S(=O)(=O)[O-])cc1.Cc1ccc(S(=O)(=O)[O-])cc1	-0.9	2.6	14	2.29
CCCC[n+]1cccc2cc(NC(=O)c3ccc(NC(=O)c4ccc(C(=O)Nc5ccc6c(ccc[n+]6CCCC)c5)cc4)cc3)ccc21.Cc1ccc(S(=O)(=O)[O-])cc1.Cc1ccc(S(=O)(=O)[O-])cc1	0.26	41	100	1.91
CC[n+]1cccc2cc(NC(=O)COc3ccc(C(=O)Nc4ccc5c(ccc[n+]5CC)c4)cc3)ccc21.Cc1ccc(S(=O)(=O)[O-])cc1.Cc1ccc(S(=O)(=O)[O-])cc1	-0.11	4	4	1.4
CCCC[n+]1cccc2cc(NC(=O)c3ccc(-c4ccc(-c5ccc(-c6ccc(C(=O)Nc7ccc8c(ccc[n+]8CCCC)c7)cc6)cc5)cc4)cc3)ccc21.Cc1ccc(S(=O)(=O)[O-])cc1.Cc1ccc(S(=O)(=O)[O-])cc1	0.74	15	57	1.73

SMILES	Rm [1]	D40 (L1210 [2]) [mg/kg]	LD10 (Mus musculus) [mg/kg]	log(ILSmax) (L1210 [3])
CC[n+]1cc(-c2ccc(NC(=O)c3ccc(Nc4cc[n+](CC)c5ccccc45)cc3)cc2)c(N)nc1N.[I-].[I-]	0.45	3.3	32	2.11
CCCC[n+]1cccc2cc(NC(=O)c3ccc(C(=O)Nc4ccc5c(ccc[n+]5CCCC)c4)nc3)ccc21.Cc1ccc(S(=O)(=O)[O-])cc1.Cc1ccc(S(=O)(=O)[O-])cc1	0.31	120	175	1.87
CC[n+]1ccc(Nc2ccc(NC(=O)/C=C/c3ccc(C(=O)Nc4ccc(Nc5cc[n+](CC)cc5)cc4)cc3)cc2)cc1.Cc1ccc(S(=O)(=O)[O-])cc1.Cc1ccc(S(=O)(=O)[O-])cc1	-0.03	1.6	8	2.2
C[n+]1cccc(NC(=O)c2ccc(NC(=O)c3ccc(C(=O)Nc4ccc5c(ccc[n+]5C)c4)cc3)cc2)c1.Cc1ccc(S(=O)(=O)[O-])cc1.Cc1ccc(S(=O)(=O)[O-])cc1	-0.25	12	27	2.03
CC[n+]1cccc(NC(=O)c2ccc(NC(=O)c3ccc(C(=O)Nc4ccc(C(=O)Nc5ccc[n+](CC)c5)cc4OC)cc3)c(OC)c2)c1.Cc1ccc(S(=O)(=O)[O-])cc1.Cc1ccc(S(=O)(=O)[O-])cc1	-0.15	10.3	25	1.86
CCC[n+]1ccc(Nc2ccc(NC(=O)c3ccc(Nc4cc[n+](CCC)c5ccc(N)cc45)cc3)cc2N)cc1.[I-].[I-]	0.41	3.6	10	1.95
CC[n+]1cc(-c2ccc(NC(=O)/C=C/c3ccc(C(=O)Nc4ccc(-c5c[n+](CC)c(N)nc5N)cc4)cc3)cc2)c(N)nc1N.Cc1ccc(S(=O)(=O)[O-])cc1.Cc1ccc(S(=O)(=O)[O-])cc1	-0.35	5.1	27	2.23
CC[n+]1cccc2ccc(NC(=O)c3ccc(-c4ccc(-c5ccc(-c6ccc(C(=O)Nc7ccc8ccc[n+](CC)c8c7)cc6)cc5)cc4)cc3)cc21.Cc1ccc(S(=O)(=O)[O-])cc1.Cc1ccc(S(=O)(=O)[O-])cc1	0.08	20.4	106	2.02
CC[n+]1ccc(Nc2ccc(NC(=O)/C=C/c3ccc(C(=O)Nc4ccc(Nc5cc[n+](CC)cc5)c(N)c4)cc3)cc2N)cc1.[Br-].[Br-]	0.35	1.4	7.5	2.3
CCC[n+]1cccc(NC(=O)c2ccc(NC(=O)c3ccc(C(=O)Nc4ccc(C(=O)Nc5ccc[n+](CCC)c5)cc4)c(OC)c3)cc2)c1.Cc1ccc(S(=O)(=O)[O-])cc1.Cc1ccc(S(=O)(=O)[O-])cc1	0.78	22	22	1.6
CCC[n+]1ccc(Nc2ccc(C(=O)Nc3ccc(/C(C)=N/NC(=N)N)cc3)c(N)c2)c2cc(N)ccc21.Cc1ccc(S(=O)(=O)O)cc1.Cc1ccc(S(=O)(=O)[O-])cc1	0.07	10	60	2.2
CC[n+]1ccc(-c2ccc(-c3ccc(-c4ccc(NC(=O)c5ccc(C(=O)Nc6ccc(-c7ccc(-c8ccc(-c9cc[n+](CC)cc9)cc8)cc7)cc6)cc5)cc4)cc3)cc2)cc1.Cc1ccc(S(=O)(=O)[O-])cc1.Cc1ccc(S(=O)(=O)[O-])cc1	0.09	1.2	14	2.23
CCCC[n+]1cccc(NC(=O)c2ccc(NC(=O)c3ccc(C(=O)Nc4ccc5c(ccc[n+]5CCCC)c4)cc3)cc2)c1.Cc1ccc(S(=O)(=O)[O-])cc1.Cc1ccc(S(=O)(=O)[O-])cc1	0.85	32	32	1.6
CC[n+]1ccc(Nc2ccc(NC(=O)c3ccc(C(=O)Nc4ccc(Nc5cc[n+](CC)cc5)cc4)cc3)cc2)cc1.Cc1ccc(S(=O)(=O)[O-])cc1.Cc1ccc(S(=O)(=O)[O-])cc1	0.46	0.5	2.5	2.24
C[n+]1ccc(Nc2ccc(NC(=O)c3ccc(Nc4cc[n+](C)c5cc(N)ccc45)cc3N)cc2)cc1.[Br-].[Br-]	-0.12	1.2	20	2.45
